Activity calls are given as the source filed them.
Assays:
SNB-75 = assay: Cytotoxicity against human SNB75 cells after 48 hrs by trypan blue dye exclusion assay; type: functional; conditions: SNB-75, 48 h
COLO 205 = assay: Cytotoxicity against human COLO205 cells after 48 hrs by trypan blue dye exclusion assay; type: functional; conditions: COLO 205, 48 h
786-0 = assay: Cytotoxicity against human 786-0 cells after 48 hrs by trypan blue dye exclusion assay; type: functional; conditions: 786-0, 48 h
U-251 = assay: Cytotoxicity against human U251 cells after 48 hrs by trypan blue dye exclusion assay; type: functional; conditions: U-251, 48 h
OVCAR-4 = assay: Cytotoxicity against human OVCAR4 cells after 48 hrs by trypan blue dye exclusion assay; type: functional; conditions: OVCAR-4, 48 h
RPMI-8226 = assay: Cytotoxicity against human RPMI8226 cells after 48 hrs by trypan blue dye exclusion assay; type: functional; conditions: RPMI-8226, 48 h
MDA-MB-435 = assay: Cytotoxicity against human MDA-MB-435 cells after 48 hrs by trypan blue dye exclusion assay; type: functional; conditions: MDA-MB-435, 48 h
UO-31 = assay: Cytotoxicity against human UO31 cells after 48 hrs by trypan blue dye exclusion assay; type: functional; conditions: UO-31, 48 h
HOP-92 = assay: Cytotoxicity against human HOP92 cells after 48 hrs by trypan blue dye exclusion assay; type: functional; conditions: HOP-92, 48 h
DU-145 = assay: Cytotoxicity against human DU145 cells after 48 hrs by trypan blue dye exclusion assay; type: functional; conditions: DU-145, 48 h
HL-60(TB) = assay: Cytotoxicity against human HL-60(TB) cells after 48 hrs by trypan blue dye exclusion assay; type: functional; conditions: HL-60, 48 h
CAKI-1 = assay: Cytotoxicity against human CAKI-1 cells after 48 hrs by trypan blue dye exclusion assay; type: functional; conditions: CAKI-1, 48 h
LOX IMVI = assay: Cytotoxicity against human LOXIMVI cells after 48 hrs by trypan blue dye exclusion assay; type: functional
M14 = assay: Cytotoxicity against human M14 cells after 48 hrs by trypan blue dye exclusion assay; type: functional; conditions: M14, 48 h
NCI-H460 = assay: Cytotoxicity against human NCI-H460 cells after 48 hrs by trypan blue dye exclusion assay; type: functional; conditions: NCI-H460, 48 h
MCF7 = assay: Cytotoxicity against human MCF7 cells after 48 hrs by trypan blue dye exclusion assay; type: functional; conditions: MCF7, 48 h
HCT-116 = assay: Cytotoxicity against human HCT116 cells after 48 hrs by trypan blue dye exclusion assay; type: functional; conditions: HCT-116, 48 h
A498 = assay: Cytotoxicity against human A498 cells after 48 hrs by trypan blue dye exclusion assay; type: functional; conditions: A498, 48 h
NCI-H226 = assay: Cytotoxicity against human NCI-H226 cells after 48 hrs by trypan blue dye exclusion assay; type: functional; conditions: NCI-H226, 48 h
CCRF-CEM = assay: Cytotoxicity against human CCRF-CEM cells after 48 hrs by trypan blue dye exclusion assay; type: functional
SN12C = assay: Cytotoxicity against human SN12C cells after 48 hrs by trypan blue dye exclusion assay; type: functional
ACHN = assay: Cytotoxicity against human ACHN cells after 48 hrs by trypan blue dye exclusion assay; type: functional
HCT-15 = assay: Cytotoxicity against human HCT15 cells after 48 hrs by trypan blue dye exclusion assay; type: functional; conditions: HCT-15, 48 h
HT-29 = assay: Cytotoxicity against human HT-29 cells after 48 hrs by trypan blue dye exclusion assay; type: functional; conditions: HT-29, 48 h
[1] = Cytotoxicity against human Hs 578T cells after 48 hrs by trypan blue dye exclusion assay; type: functional
Paracentrotus lividus [2] = assay: Microtubule destabilizing activity in Paracentrotus lividus embryo assessed as embryo spinning at 2 fold less effective threshold concentration after 15 mins to 20 hrs; type: functional, organism-based
BT-549 = assay: Cytotoxicity against human BT549 cells after 48 hrs by trypan blue dye exclusion assay; type: functional; conditions: BT-549, 48 h
NCI/ADR-RES = assay: Cytotoxicity against human NCI/ADR-RES cells after 48 hrs by trypan blue dye exclusion assay; type: functional
TK-10 = assay: Cytotoxicity against human TK10 cells after 48 hrs by trypan blue dye exclusion assay; type: functional; conditions: TK-10, 48 h
OVCAR-8 = assay: Cytotoxicity against human OVCAR8 cells after 48 hrs by trypan blue dye exclusion assay; type: functional; conditions: OVCAR-8, 48 h
SK-MEL-2 = assay: Cytotoxicity against human SK-MEL-2 cells after 48 hrs by trypan blue dye exclusion assay; type: functional; conditions: SK-MEL-2, 48 h
MDA-MB-231 = assay: Cytotoxicity against human MDA-MB-231 cells after 48 hrs by trypan blue dye exclusion assay; type: functional; conditions: MDA-MB-231, 48 h
SNB-19 = assay: Cytotoxicity against human SNB19 cells after 48 hrs by trypan blue dye exclusion assay; type: functional; conditions: SNB-19, 48 h
SF-268 = assay: Cytotoxicity against human SF268 cells after 48 hrs by trypan blue dye exclusion assay; type: functional; conditions: SF-268, 48 h
NCI-H23 = assay: Cytotoxicity against human NCI-H23 cells after 48 hrs by trypan blue dye exclusion assay; type: functional; conditions: NCI-H23, 48 h
OVCAR-3 = assay: Cytotoxicity against human OVCAR3 cells after 48 hrs by trypan blue dye exclusion assay; type: functional; conditions: OVCAR-3, 48 h
HCC 2998 = assay: Cytotoxicity against human HCC2998 cells after 48 hrs by trypan blue dye exclusion assay; type: functional; conditions: HCC 2998, 48 h
IGROV-1 = assay: Cytotoxicity against human IGROV1 cells after 48 hrs by trypan blue dye exclusion assay; type: functional; conditions: IGROV-1, 48 h
PC-3 = assay: Cytotoxicity against human PC3 cells after 48 hrs by trypan blue dye exclusion assay; type: functional; conditions: PC-3, 48 h
NCI-H522 = assay: Cytotoxicity against human NCI-H522 cells after 48 hrs by trypan blue dye exclusion assay; type: functional; conditions: NCI-H522, 48 h
SF-295 = assay: Cytotoxicity against human SF295 cells after 48 hrs by trypan blue dye exclusion assay; type: functional; conditions: SF-295, 48 h
SK-MEL-5 = assay: Cytotoxicity against human SK-MEL-5 cells after 48 hrs by trypan blue dye exclusion assay; type: functional; conditions: SK-MEL-5, 48 h
RXF 393 = assay: Cytotoxicity against human RXF393 cells after 48 hrs by trypan blue dye exclusion assay; type: functional; conditions: RXF 393, 48 h
SW-620 = assay: Cytotoxicity against human SW620 cells after 48 hrs by trypan blue dye exclusion assay; type: functional; conditions: SW-620, 48 h
SK-OV-3 = assay: Cytotoxicity against human SKOV3 cells after 48 hrs by trypan blue dye exclusion assay; type: functional; conditions: SK-OV-3, 48 h
NCI-H322M = assay: Cytotoxicity against human NCI-H322M cells after 48 hrs by trypan blue dye exclusion assay; type: functional
EKVX = assay: Cytotoxicity against human EKVX cells after 48 hrs by trypan blue dye exclusion assay; type: functional
OVCAR-5 = assay: Cytotoxicity against human OVCAR5 cells after 48 hrs by trypan blue dye exclusion assay; type: functional; conditions: OVCAR-5, 48 h
KM12 = assay: Cytotoxicity against human KM12 cells after 48 hrs by trypan blue dye exclusion assay; type: functional; conditions: KM12, 48 h
MDA-MB-468 = assay: Cytotoxicity against human MDA-MB-468 cells after 48 hrs by trypan blue dye exclusion assay; type: functional; conditions: MDA-MB-468, 48 h
SR = assay: Cytotoxicity against human SR cells after 48 hrs by trypan blue dye exclusion assay; type: functional
SF-539 = assay: Cytotoxicity against human SF539 cells after 48 hrs by trypan blue dye exclusion assay; type: functional; conditions: SF-539, 48 h
MOLT-4 = assay: Cytotoxicity against human MOLT4 cells after 48 hrs by trypan blue dye exclusion assay; type: functional; conditions: MOLT-4, 48 h
SK-MEL-28 = assay: Cytotoxicity against human SK-MEL-28 cells after 48 hrs by trypan blue dye exclusion assay; type: functional; conditions: SK-MEL-28, 48 h
Malme-3M = assay: Cytotoxicity against human MALME-3M cells after 48 hrs by trypan blue dye exclusion assay; type: functional
Paracentrotus lividus [3] = assay: Antimitotic activity against Paracentrotus lividus embryo assessed as cleavage alteration at 2 fold less effective threshold concentration after 2.5 to 6 hrs; type: functional, organism-based
UACC-257 = assay: Cytotoxicity against human UACC257 cells after 48 hrs by trypan blue dye exclusion assay; type: functional; conditions: UACC-257, 48 h
Paracentrotus lividus [4] = assay: Antimitotic activity against Paracentrotus lividus embryo assessed as cleavage arrest at 2 fold less effective threshold concentration after 2.5 to 6 hrs; type: functional, organism-based
UACC-62 = assay: Cytotoxicity against human UACC62 cells after 48 hrs by trypan blue dye exclusion assay; type: functional; conditions: UACC-62, 48 h
A549 = assay: Cytotoxicity against human A549 cells after 48 hrs by trypan blue dye exclusion assay; type: functional; conditions: A549, 48 h

## COc1cc([C@H]2C3=C(COC3=O)Nc3cc4c(cc32)OCO4)cc2c1OCO2
SNB-75
  GI50: 0.0267 µM
COLO 205
  GI50: 0.186 µM
786-0
  GI50: 0.321 µM
U-251
  GI50: 0.108 µM
OVCAR-4
  GI50: 0.0984 µM
RPMI-8226
  GI50: 0.0931 µM
MDA-MB-435
  GI50: 0.0269 µM
UO-31
  GI50: 1.38 µM
HOP-92
  GI50: 0.136 µM
DU-145
  GI50: 0.173 µM
HL-60(TB)
  GI50: 0.099 µM
CAKI-1
  GI50: 0.128 µM
LOX IMVI
  GI50: 0.117 µM
M14
  GI50: 0.228 µM
NCI-H460
  GI50: 0.69 µM
MCF7
  GI50: 0.0372 µM
HCT-116
  GI50: 0.236 µM
A498
  GI50: 0.0309 µM
NCI-H226
  GI50: 4.59 µM
CCRF-CEM
  GI50: 0.12 µM
SN12C
  GI50: 0.35 µM
ACHN
  GI50: 0.357 µM
HCT-15
  GI50: 0.256 µM
HT-29
  GI50: 1.25 µM
[1]
  GI50: 0.0378 µM
Paracentrotus lividus [2]
  Activity: inactive
BT-549
  GI50: 0.338 µM
NCI/ADR-RES
  GI50: 0.103 µM
TK-10
  GI50: 0.115 µM
OVCAR-8
  GI50: 0.232 µM
SK-MEL-2
  GI50: 0.207 µM
MDA-MB-231
  GI50: 0.308 µM
SNB-19
  GI50: 0.362 µM
SF-268
  GI50: 0.108 µM
NCI-H23
  GI50: 0.142 µM
OVCAR-3
  GI50: 0.0319 µM
HCC 2998
  GI50: 0.387 µM
IGROV-1
  GI50: 0.185 µM
PC-3
  GI50: 0.0803 µM
NCI-H522
  GI50: 0.144 µM
SF-295
  GI50: 0.029 µM
SK-MEL-5
  GI50: 0.101 µM
RXF 393
  GI50: 0.0303 µM
SW-620
  GI50: 0.0982 µM
SK-OV-3
  GI50: 0.155 µM
NCI-H322M
  GI50: 0.142 µM
EKVX
  GI50: 0.32 µM
OVCAR-5
  GI50: 1.09 µM
KM12
  GI50: 0.0362 µM
MDA-MB-468
  GI50: 0.119 µM
SR
  GI50: 0.0601 µM
SF-539
  GI50: 0.0483 µM
MOLT-4
  GI50: 0.36 µM
SK-MEL-28
  GI50: 0.061 µM
Malme-3M
  GI50: > 100 µM
Paracentrotus lividus [3]
  Activity: inactive
UACC-257
  GI50: 0.0741 µM
Paracentrotus lividus [4]
  Activity: inactive
UACC-62
  GI50: 0.048 µM
A549
  GI50: 0.306 µM

From ChEMBL document CHEMBL2010711, “Synthesis and comparative evaluation of 4-oxa- and 4-aza-podophyllotoxins as antiproliferative microtubule destabilizing agents” (Bioorg Med Chem Lett, 2012)
